These results are taken from patent publication US20180064662A1 (THE GENERAL HOSPITAL CORPORATION, priority 2015, published 2018).

Data set [1] has as its system PAN02 tumors. Kind of data set: Orthotopic PAN02 PDAC in lean and obese C57BL/6 mice (5-FU, losartan, TAN depletion, IL-1β inhibition). The class given is in vivo, mouse. The conditions noted are these: for gene and protein expression of activated PSC marker αSMA: losartan 90 mg/Kg i.p. every day. An excerpt:
(§1) Wild-type (WT) C57BL/6 and FVB male mice were originally obtained from Jackson Laboratory (The Jackson Laboratory, Bar Harbor, Me.) and bred and maintained in our defined-flora colony. KPC (Ptfl-Cre/LSL-KRAS^G12D/p53-R172H) and iKRAS (p48-Cre;R26-rtTa-IRES-EGFP;TetO-Kras^G12D mice) mice were obtained. To generate an obese model, mice (6-week old) were given either 10% or a 60% fat diet (D12450J and D12492, Research Diets, New Brunswick, N.J.) for 10 weeks (or until tumor collection in spontaneous models), as previously described (Surwit, R. S., et al. Metabolism: clinical and experimental 44, 645-651 (1995)). For implanted tumor experiments, AK4.4 cells (KrasG12D and p53 ? /−) were isolated from mice generating spontaneous pancreatic tumors (Ptf1-Cre/LSL-Kras^G12D/p53Lox/ ? ) (Bardeesy, N., et al. Proc Natl Acad SciUSA103, 5947-5952 (2006)). Orthotopic pancreatic tumors were generated by implanting a small piece (1 mm^3) of viable tumor tissue (from a source tumor in a separate animal) into the pancreas of a 6-8 week-old male lean or obese FVB (AK4.4 model) or C57BL/6 (PAN02 model) mouse. PAN02 tumor chunks and AK4.4 cells were authenticated by IDEXX laboratories. (PAN02: IDEXX RADIL Case # 22366-2013. AK4.4: IDEXX RADIL Case #27818-2014). For AT1- and AT2-knockout studies, tumors were implanted into the pancreas of a 6-8-week-old male lean or obese C57BL/ 6, agtr1 a−/− or agtr2−/− mice.
(§2) For all experiments unless specified below, mice bearing orthotropic PAN02 or AK4.4 pancreatic tumors were randomized into treatment groups (or no treatment) and tumors were collected at day 21 after implantation. For tumor growth study with chemotherapy, mice were divided into treatment groups 7 days after implantation, and treated with either 5-FU (30 mg/Kg i.v. every 4 days) or an equal volume of saline by intravenous injection on days 7, 11 and 15 after implantation, with tumors collected at day 19. For tumor growth study with losartan, mice were treated with losartan (90 mg/Kg i.p. every day) or an equal volume of PBS intraperitoneally starting on day 5 after implantation and for the duration of the study. In the combined experiment of losartan and 5-FU, the same protocol was used for each drug as described above. TAN depletion by a Ly6G specific inhibitor (BioExcell, 4 mg/Kg i.p. every 2 days) was administered to PAN02 bearing animals starting at day 1 or day 7, and to AK4.4 bearing animals at day 7. IL-1β inhibition (MM425B, Endogen/Pierce Biotechnology, 2 mg/Kg i.p. every 2 days) was administered to PAN02 bearing animals starting at day 7. At the completion of the study, adipose tissue and tumor samples were collected, weighed, and processed for further analysis. When spontaneous models were used, tumors were collected when palpable.
(§3) Angiotensin inhibitor losartan was obtained as pills, crushed and dissolved in PBS over 24 h. The solution was then sterile filtered for injection. Doxorubicin and 5-FU were obtained as solutions for injection. All drugs were purchased from the pharmacy at Massachusetts General
(§4) To assess obesity-induced ECM remodeling and fibrosis fibrillar collagen accumulation was quantified using second harmonic generation imaging, and collagen-I content, hyaluronan, MMPs levels and fibrosis related signaling pathways (e.g. AT-I, CTGF, TSP1, TGFβ1, and P38/ERK signaling) were measured by rtPCR array, immunohistochemistry and immunoblotting. The topographical distribution and density of cancer-associated fibroblasts (CAFs) in tumor sections was detected by staining for αSMA activated fibroblast marker. Vessel morphology and perfusion was assessed using standard histological analyses.

The next data set has as its system AK4.4 tumors. The experiment in a line: Orthotopic AK4.4 PDAC in lean and obese FVB mice (5-FU, losartan, TAN depletion). In kind it is in vivo, mouse. The settings on record: for response to chemotherapy: losartan with 5-FU.
Text: as §1, §2, §3, §4

Data set [2] concerns PAN02 tumors. The experiment in a line: Delivery of chemotherapy to tumors in lean and obese mice. The conditions noted are these: 5-FU 30 mg/kg, 30 min prior to tumor removal, HPLC.
A further data set relates to breast cancer. Kind of data set: Breast cancer patients treated with bevacizumab in the neoadjuvant setting. In kind it is in vivo, human. The conditions noted are these: normal weight patients.
The mark [3] stands for this setting: lean mice, 3 doses of 5-FU 30 mg/kg BW q4d.
Where [4] appears, read: obese conditions, 5-FU 30 mg/kg q4d.
[5] abbreviates: obese mice, losartan monotherapy.
Where [6] appears, read: tumors from lean mice, losartan.
Where [7] appears, read: tumors from obese but not lean mice, losartan.
Where [8] appears, read: tumors from obese mice, losartan.

As for `O=c1[nH]cc(F)c(=O)[nH]1` [5-FU, 5-fluorouracil], the “reduction in tumor weight as compared to untreated controls” value with PAN02 tumors [1] (setting [3]) and in the data set with AK4.4 tumors (setting [3]) was 50% in each case. In addition, the tumor weight entry in the data set with PAN02 tumors [1] (setting [4]) and with AK4.4 tumors (setting [4]) was “did not significantly reduce tumor weight” each time. Besides, the “delivery of 5-FU to tumors in obese mice versus lean” value in the data set with PAN02 tumors [2] is recorded as “decreased”.
With `CCCCc1nc(Cl)c(CO)n1Cc1ccc(-c2ccccc2-c2nn[nH]n2)cc1` [losartan], the “gene and protein expression of activated PSC marker αSMA” value is “only mildly” in the data set on PAN02 tumors [1] (lean animals); “reduce gene and protein expression” with PAN02 tumors [1] (tumors from obese animals); “only mildly” in the data set with AK4.4 tumors (lean animals, losartan); “reduce gene and protein expression” in the data set with AK4.4 tumors (tumors from obese animals, losartan 90 mg/Kg i.p. every day). Also, the response to chemotherapy entry with PAN02 tumors [1] (obese animals, losartan with 5-FU) was “improved response to chemotherapy”; in the data set with AK4.4 tumors (lean setting), “improved response to chemotherapy”; with AK4.4 tumors (obese setting), “higher magnitude”. Moreover, the “cytokine expression in tumors (multiplex protein)” value in the data set with PAN02 tumors [1] (obese mice, losartan) is “reduced the expression of multiple cytokines including IL-1β”; in the data set on AK4.4 tumors (obese mice, losartan), “reduced the expression of multiple cytokines including IL-1β”. For the same compound, the tumor weight result in the data set on PAN02 tumors [1] (setting [5]) and in the data set with AK4.4 tumors (setting [5]) was “reduced tumor weight” in each case. Further, the “gene and protein expression of collagen-I and fibrillar collagen” value is “not lean mice” in the data set on PAN02 tumors [1] (setting [6]); “decrease in gene and protein expression of collagen-I as well as fibrillar collagen” in the data set with PAN02 tumors [1] (setting [8]); “not lean mice” with AK4.4 tumors (setting [6]); “decrease in gene and protein expression of collagen-I as well as fibrillar collagen” in the data set with AK4.4 tumors (setting [8]). Besides, the chemotherapy delivery result in the data set with PAN02 tumors [1] (setting [7]) and with AK4.4 tumors (setting [7]) was “increase chemotherapy delivery” throughout. The tumor perfusion entry with PAN02 tumors [1] (setting [7]) and in the data set on AK4.4 tumors (setting [7]) was “tended to improve perfusion” in each case. Moreover, the “desmoplasia-related markers and AT1 downstream signaling” value in the data set on AK4.4 tumors (lean animals, losartan) was “only modest”. Further, the “enrichment for GR(+)F480(-) cells within the CD45 population” value in the data set on AK4.4 tumors (losartan treatment) is reported as “tended to decrease the enrichment”. In addition, the “enrichment for T regulatory cells within CD4 cells” value with AK4.4 tumors (losartan treatment) is “tended to decrease”. Moreover, in the data set with AK4.4 tumors (obese mice, losartan), the “desmoplasia-related markers (AT1, TGF-β, SMAD2, vimentin, E-cadherin, snail, MMP9, decorin) and AT1 downstream signaling” value is “normalized the obesity-induced abnormal expression”.
bevacizumab: antibody against VEGF: in the data set on breast cancer, the tumor hypoxia result is given as “acutely increases tumor hypoxia” and the tumor vessels entry was “reduces tumor vessels”.
